From US20260184708A1, “PYRIDAZINONES AND METHODS OF USE THEREOF” (GFB (ABC), LLC, priority 2017, published 2026)
Like-named read-outs stand apart in the source and are kept apart here.

Molecular target: T1, TRPC5 (Homo sapiens, UniProt Q9UL62)
T1 construct: expressed in transfected cells; host or cells: HEK 293
T1 sequence (Q9UL62 1-973): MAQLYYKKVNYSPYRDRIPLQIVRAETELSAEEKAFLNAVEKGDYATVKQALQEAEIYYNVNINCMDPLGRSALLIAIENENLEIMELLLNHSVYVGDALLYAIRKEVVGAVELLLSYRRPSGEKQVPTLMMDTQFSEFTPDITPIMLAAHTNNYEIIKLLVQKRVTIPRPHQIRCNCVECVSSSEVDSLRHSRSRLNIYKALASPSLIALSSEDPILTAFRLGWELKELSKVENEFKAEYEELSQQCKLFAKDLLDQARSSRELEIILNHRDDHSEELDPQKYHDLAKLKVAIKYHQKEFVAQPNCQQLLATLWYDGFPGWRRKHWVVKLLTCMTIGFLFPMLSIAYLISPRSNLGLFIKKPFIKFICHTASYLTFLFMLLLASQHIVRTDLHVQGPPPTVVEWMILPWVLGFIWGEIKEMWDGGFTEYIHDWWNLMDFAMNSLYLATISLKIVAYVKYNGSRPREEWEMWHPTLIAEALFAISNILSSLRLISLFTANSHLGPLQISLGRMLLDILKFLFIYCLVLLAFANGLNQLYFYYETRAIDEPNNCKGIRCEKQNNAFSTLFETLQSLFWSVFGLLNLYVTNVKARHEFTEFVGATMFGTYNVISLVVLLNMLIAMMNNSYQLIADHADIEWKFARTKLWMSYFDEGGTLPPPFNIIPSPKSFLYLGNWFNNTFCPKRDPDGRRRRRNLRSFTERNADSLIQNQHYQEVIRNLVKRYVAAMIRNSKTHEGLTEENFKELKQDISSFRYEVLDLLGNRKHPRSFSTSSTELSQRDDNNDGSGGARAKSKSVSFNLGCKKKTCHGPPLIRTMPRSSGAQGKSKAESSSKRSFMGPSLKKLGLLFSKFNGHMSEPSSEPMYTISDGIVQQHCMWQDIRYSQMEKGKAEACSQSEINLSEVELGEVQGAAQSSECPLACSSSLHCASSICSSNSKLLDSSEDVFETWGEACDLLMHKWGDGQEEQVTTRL
Experiment: TRPC5 Fluorescence Assay - FLIPR format (HEK-TREx hTRPC5, Riluzole stimulation)
Assay type: cell-based
Method: • Cell line: ICLN-001633 • Base Cell: HEK • Channel: TRPC5 • Species: Human • Thaw ID: multiple • Passage: multiple
FLIPR Assay Buffer (Earls Balanced Salt Solution (EBSS) was prepared as follows:
Test Agent Preparation: Compounds were made up to, or supplied as, a 10 mM stock solution generally using DMSO as the vehicle. 10-point dose response curves were generated using the Echo-550 acoustic dispenser. Compound source plates were made by serially diluting compound stocks to create 10 mM, 1 mM, and 0.1 mM solutions in DMSO into Echo certified LDV plates. The Echo then serially spotted 100% DMSO stock solutions into source dose response plates to generate a 4-fold dilution scheme. 100% DMSO was added to the spotted dose response plates to bring the final volume to 5 μl. […] of the dose response stock plate was then spotted into pre-incubation and stimulation assay plates. 50 μl of pre-incubation buffer and 100 μl of stimulation buffer was then added to the plates resulting in a final assay test concentration range of 30 μM to 0.0001 μM with a final DMSO concentration of 0.3%.
Experimental Methods: Cells expressing TRPC5 (HEK-TREx hTRPC5) are plated onto 384 well, black PDL-coated microplates and maintained in TRPC5 growth media the day prior to use for experiments. TRPC5 expression is induced by the application of […] tetracycline at the time of plating. Media is removed from the plates and 10 μl of 4 μM of Fluo-4 AM (mixed with equal volume of Pluronic F-127) in EBSS is added to the cells. Cells are incubated at room temperature, protected from light, for 60-90 minutes. After the incubation period, the dye is removed and replaced with 10 μl of EBSS. Cell, pre-incubation and stimulation plates are loaded onto the FLIPR-II and the assay is initiated. The FLIPR measures a 10 second baseline and then adds 10 μl of 2× compounds (or controls). Changes in fluorescence are monitored for an additional 5 minutes. After the 5 minute pre-incubation, 20 μl of 2× Riluzole (with 1× compound or controls) is added to the cell plate. The final Riluzole stimulation concentration in the assay is 30 μM. After the Riluzole addition, changes in fluorescence are monitored for an additional 5 minutes.
Test Agent Effect: Test agent modulation of TRPC5 calcium response was determined as follows. After the Riluzole, fluorescence was monitored for a 5 minute period. The maximum relative fluorescene response (minus the control response of 1 μM of the control inhibitor) was captured and exported from the FLIPR. Test agent effect was calculated as % inhibition using the following formula: % inhibition=((RFU Test Agent−Plate Average RFU REF INHIB)/(Plate Average RFU Control−Plate Average RFU REF INHIB))×100

[1] = Table 10, read-out: TRPCS-FLIPR IC50
[2] = Table 7, read-out: TRPC5-FLIPR IC50
[3] = Table 9, read-out: hTRPCS-FLIPR IC50

| IC50 [1] [nM] | Structure (SMILES) | further results |
| --- | --- | --- |
| 0.01 to 1000 | CCc1ncsc1Cn1nnc2c1CCN(c1cn[nH]c(=O)c1Cl)C2 | – |
| 0.01 to 1000 | CCCOc1nc2c(n1Cc1ccccc1C(F)(F)F)CCN(c1cn[nH]c(=O)c1Cl)C2 | – |
| 0.01 to 1000 | O=c1[nH]ncc(N2CCc3c(cnn3Cc3cccnc3[C@@H](O)C(F)(F)F)C2)c1Cl | – |
| 1000 to 5000 | CO[C@@H]1CN(c2cn[nH]c(=O)c2Cl)Cc2nnn(Cc3ccccc3C(F)F)c21 | – |
| 0.01 to 1000 | COc1nn(Cc2ccccc2C(F)(F)F)c2c1CN(c1cn[nH]c(=O)c1Cl)CC2 | – |
| 0.01 to 1000 | C[C@@H]1Cc2c(nnn2[C@H](C)c2ccc(F)cc2C(F)(F)F)CN1c1cn[nH]c(=O)c1Cl | – |
| 0.01 to 1000 | CNC(=O)c1nn(Cc2ccccc2C(F)F)c2c1CN(c1cn[nH]c(=O)c1Cl)CC2 | – |
| 0.01 to 1000 | O=c1[nH]ncc(N2CCc3c(ncn3Cc3cccnc3[C@H](O)C(F)(F)F)C2)c1Cl | – |
| 1000 to 5000 | N[C@@H](c1cc(F)ccc1Cn1nnc2c1CCN(c1cn[nH]c(=O)c1Cl)C2)C(F)(F)F | – |
| 0.01 to 1000 | C[C@H]1c2nnn([C@@H](C)c3ccc(F)cc3C(F)(F)F)c2CCN1c1cn[nH]c(=O)c1Cl | – |
| 1000 to 5000 | CO[C@H]1CN(c2cn[nH]c(=O)c2Cl)Cc2nnn(Cc3ccccc3C(F)F)c21 | – |
| 0.01 to 1000 | C[C@H]1c2nnn([C@@H](C)c3ccccc3C(F)(F)F)c2CCN1c1cn[nH]c(=O)c1Cl | – |
| 0.01 to 1000 | Cn1c(=O)c2c(n1Cc1ccccc1C(F)F)CCN(c1cn[nH]c(=O)c1Cl)C2 | – |
| 0.01 to 1000 | COc1nn(Cc2ccccc2C(F)F)c2c1CN(c1cn[nH]c(=O)c1Cl)CC2 [drawing 1056] | – |
| 0.01 to 1000 | CCc1ncccc1[C@H](C)n1nnc2c1CCN(c1cn[nH]c(=O)c1Cl)C2 [drawing 1059] | – |
| 0.01 to 1000 | CN1CCN(Cc2nn(Cc3ccccc3C(F)F)c3c2CN(c2cn[nH]c(=O)c2Cl)CC3)C(=O)C1 [drawing 1111] | – |

The next lines start with the compound.

| Structure (SMILES) | IC50 [1] [nM] | further results |
| --- | --- | --- |
| O=c1[nH]ncc(N2CCc3c(nnn3Cc3ccc(F)cc3CN3CCOCC3)C2)c1Cl | 1000 to 5000 | – |
| O=c1[nH]ncc(N2CCc3c(nc(Oc4cccc(F)c4)n3Cc3ccccc3C(F)(F)F)C2)c1Cl | 0.01 to 1000 | – |
| CN(C)Cc1cc(F)ccc1Cn1nnc2c1CCN(c1cn[nH]c(=O)c1Cl)C2 | 1000 to 5000 | – |
| O=c1[nH]ncc(N2CCc3c(nnn3Cc3ccccc3CO)C2)c1Cl | 1000 to 5000 | – |
| N#Cc1nn(Cc2ccccc2C(F)F)c2c1CN(c1cn[nH]c(=O)c1Cl)CC2 | 0.01 to 1000 | – |
| C[C@@H](c1ccc(F)cc1CN1CCOCC1)n1nnc2c1CCN(c1cn[nH]c(=O)c1Cl)C2 | 1000 to 5000 | – |
| O=C(c1nn(Cc2ccccc2C(F)F)c2c1CN(c1cn[nH]c(=O)c1Cl)CC2)N1CCOCC1 | 0.01 to 1000 | – |
| C[C@H](c1ccc(F)cc1CN1CCOCC1)n1nnc2c1CCN(c1cn[nH]c(=O)c1Cl)C2 | 1000 to 5000 | – |
| C[C@@H](c1ccc(F)cc1CN1CCN(C)CC1)n1nnc2c1CCN(c1cn[nH]c(=O)c1Cl)C2 | 5000 to 10000 | – |
| Cn1c(=O)c2c(n1Cc1ccccc1C(F)(F)F)CCN(c1cn[nH]c(=O)c1Cl)C2 | 1000 to 5000 | – |
| N[C@H](c1cc(F)ccc1Cn1nnc2c1CCN(c1cn[nH]c(=O)c1Cl)C2)C(F)(F)F | 0.01 to 1000 | – |
| C[C@@H](c1cc(F)ccc1C(F)(F)F)n1nnc2c1CCN(c1cn[nH]c(=O)c1Cl)C2 | 0.01 to 1000 | – |
| O=c1[nH]ncc(C2=Cc3nnn(Cc4ccccc4C(F)(F)F)c3CC2)c1Cl | 1000 to 5000 | – |
| COCc1ncccc1CN1CCN(c2cn[nH]c(=O)c2Cl)CC1 [drawing 926] | – | IC50 [2]: 0.01 to 1000 nM |
| CCc1ncccc1[C@H](C)n1nnc2c1CCN(c1cn[nH]c(=O)c1Cl)C2 [drawing 928] | – | IC50 [2]: 0.01 to 1000 nM |
| O=c1[nH]ncc(N2CCc3c(ncn3Cc3cccnc3CC(F)F)C2)c1Cl [drawing 929] | – | IC50 [2]: 0.01 to 1000 nM |
| COc1nn(Cc2ccccc2C(F)F)c2c1CN(c1cn[nH]c(=O)c1Cl)CC2 [drawing 931] | – | IC50 [2]: 0.01 to 1000 nM |
| O=c1[nH]ncc(N2CCc3c(c(=O)[nH]n3Cc3ccccc3C(F)F)C2)c1Cl [drawing 936] | – | IC50 [2]: 0.01 to 1000 nM |
| COCc1ncccc1CN1CCN(c2cn[nH]c(=O)c2Cl)CC1 [drawing 1030] | – | IC50 [3]: 0.01 to 1000 nM |
| O=c1[nH]ncc(N2CCN(Cc3ccccc3C(F)(F)F)CC2)c1Cl [drawing 1036] | – | IC50 [3]: 1000 to 5000 nM |
| O=c1[nH]ncc(N2CCc3c(c(=O)[nH]n3Cc3ccccc3C(F)F)C2)c1Cl [drawing 1052] | 0.01 to 1000 | – |
| O=c1[nH]ncc(N2CCc3c(ncn3Cc3cccnc3CC(F)F)C2)c1Cl [drawing 1058] | 0.01 to 1000 | – |
